Laboratory results as given in patent US20060069132A1, “Azolecarboxamide herbicides” (priority 2004, published 2006).
Where two headings read alike, the source gives them in different places.

Experiments:
[1] = tested on: common (oilseed) sunflower; test: Test C pre-/postemergence herbicide test; assay type: in vivo, Helianthus annuus
In short: (§1)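 Visual injury scores run from 0 (no effect) to 100 (complete control), assessed relative to untreated controls 12 to 14 days after treatment in the greenhouse. Chemicals were formulated in a non-phytotoxic solvent mixture with surfactant and applied to soil after planting or to emerged plants at the 1- to 4-leaf stage.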

[2] = tested on: soybean; test: Test C pre-/postemergence herbicide test; assay type: in vivo, Glycine max
In short: as §1

[3] = tested on: goosegrass; test: Test C pre-/postemergence herbicide test; assay type: in vivo, Eleusine indica
In short: as §1

[4] = tested on: Surinam grass; test: Test C pre-/postemergence herbicide test; assay type: in vivo, Urochloa decumbens
In short: as §1

[5] = tested on: eastern black nightshade; test: Test C pre-/postemergence herbicide test; assay type: in vivo, Solanum ptycanthum
In short: as §1

[6] = tested on: velvetleaf; test: Test A pre-/postemergence herbicide test; assay type: in vivo, Abutilon theophrasti
In short: (§2)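 Pre: seeded sandy loam, directed soil spray, compound in non-phytotoxic solvent + surfactant. Post: 1–2-leaf plants (2–10 cm), sprayed to runoff. Greenhouse ~10 d; visual injury vs untreated, 0–100 scale.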

[7] = tested on: large crabgrass; test: Test A pre-/postemergence herbicide test; assay type: in vivo, Digitaria sanguinalis; settings: for pest or weed control at 500 g/ha / pest or weed control at 2000 g/ha: Digitaria sanguinalis, 240 h
In short: as §2

[8] = tested on: rice; test: Test B pre-/postemergence herbicide test; assay type: in vivo, Oryza sativa
In short: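 Evaluation is visual, comparing treated with control plants on a scale where 0 means no effect and 100 means full control. Treatments were preemergence, or postemergence on seedlings 2–18 cm tall, and held 13–15 days in the greenhouse.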

[9] = tested on: woolly cupgrass; test: Test C pre-/postemergence herbicide test; assay type: in vivo, Eriochloa villosa
In short: as §1

[10] = tested on: johnsongrass; test: Test C pre-/postemergence herbicide test; assay type: in vivo, Sorghum halepense
In short: as §1

[11] = Preemergence, 500 g ai/ha, scale 0 to 100, 0 no effect, 100 complete control
[12] = 62 g ai/ha, preemergence, scale 0 to 100
[13] = 250 g ai/ha, scale 0-100, preemergence
[14] = 500 g ai/ha, scale 0 to 100 (0 no effect, 100 complete control), visual, 12 to 14 days, preemergence
[15] = 125 g ai/ha, scale 0 (no effect) to 100 (complete control), visual, 12 to 14 days, preemergence
[16] = Postemergence, 500 g ai/ha, 0 to 100 scale, 0 no effect, 100 complete control
[17] = Postemergence, 2000 g ai/ha, 0 to 100 scale, 0 no effect, 100 complete control
[18] = Preemergence, 2000 g ai/ha, visual rating, 0 to 100 scale (0 no effect, 100 complete control)
[19] = preemergence, 500 g ai/ha, visual injury, 0 to 100 scale (0 no effect, 100 complete control)

CCn1nc(C(C)(C)C)cc1C(=O)Nc1cccc2c1CN(C)C2=O [Compound 55, N-(2,3-dihydro-2-methyl-1-oxo-1H-isoindol-4-yl)-3-(1,1-dimethylethyl)-1-ethyl-1H-pyrazole-5-carboxamide]
Plant response rating (0 = no effect, 100 = complete control), Sunflower ([1]; 62 g ai/ha, preemergence): 0 | pest or weed control at 125 g/ha ([1]; Helianthus annuus, pre-emergence, 125 g ai/ha, scale 0 (no effect) to 100 (complete control), visual, 12 to 14 days, read-out: Plant response rating, Sunflower): 0% | pest or weed control at 250 g/ha ([1]; Helianthus annuus, pre-emergence, 250 g ai/ha, scale 0 to 100 (0 no effect, 100 complete control), visual, 12 to 14 days, read-out: Plant response rating, Sunflower): 0% | Sunflower plant response rating [1, 11]: 0 | Plant response rating (0 = no effect, 100 = complete control), Soybean ([2]; 62 g ai/ha, preemergence): 0 | plant injury at 125 g/ha ([2]; Glycine max, pre-emergence, 125 g ai/ha, scale 0 (no effect) to 100 (complete control), visual, 12 to 14 days, read-out: Plant response rating, Soybean): 0% | plant injury at 250 g/ha ([2]; Glycine max, pre-emergence, 250 g ai/ha, scale 0 to 100 (0 no effect, 100 complete control), visual, 12 to 14 days, read-out: Plant response rating, Soybean): 0% | Soybean plant response rating [2, 11]: 20 | Plant response rating (0 = no effect, 100 = complete control), Goosegrass ([3]; 62 g ai/ha, preemergence): 0 | pest or weed control at 125 g/ha ([3]; Eleusine indica, pre-emergence, 312 h, 125 g ai/ha, scale 0 (no effect) to 100 (complete control), visual, 12 to 14 days, read-out: Plant response rating, Goosegrass): 50% | pest or weed control at 250 g/ha ([3]; Eleusine indica, pre-emergence, 312 h, 250 g ai/ha, scale 0 to 100 (0 no effect, 100 complete control), visual, 12 to 14 days, read-out: Plant response rating, Goosegrass): 75% | Goosegrass plant response rating [3, 11]: 95 | Plant response rating (0 = no effect, 100 = complete control), Surinam Grass ([4]; 62 g ai/ha, preemergence): 0 | Surinam Grass plant response rating [4, 11]: 100 | pest or weed control at 125 g/ha ([4]; Urochloa decumbens, pre-emergence, 312 h, 125 g ai/ha, scale 0 (no effect) to 100 (complete control), visual, 12 to 14 days, read-out: Plant response rating, Surinam Grass): 25% | pest or weed control at 250 g/ha ([4]; Urochloa decumbens, pre-emergence, 312 h, 250 g ai/ha, scale 0 to 100 (0 no effect, 100 complete control), visual, 12 to 14 days, read-out: Plant response rating, Surinam Grass): 65% | Plant response rating (0 = no effect, 100 = complete control), Nightshade ([5]; 62 g ai/ha, preemergence): 15 | Nightshade plant response rating [5, 11]: 95 | pest or weed control at 125 g/ha ([5]; pre-emergence, 125 g ai/ha, scale 0 (no effect) to 100 (complete control), visual, 12 to 14 days, read-out: Plant response rating, Nightshade): 60% | pest or weed control at 250 g/ha ([5]; pre-emergence, 250 g ai/ha, scale 0 to 100 (0 no effect, 100 complete control), visual, 12 to 14 days, read-out: Plant response rating, Nightshade): 90% | pest or weed control at 2000 g/ha ([6]; Abutilon theophrasti, post-emergence, 240 h, Postemergence, 2000 g ai/ha, 0 to 100 scale, 0 no effect, 100 complete control, read-out: Plant response rating, Velvetleaf): 40% | pest or weed control at 500 g/ha ([6]; Abutilon theophrasti, pre-emergence, 240 h, Preemergence, 500 g ai/ha, visual rating, 0 to 100 scale (0 no effect, 100 complete control), read-out: Velvetleaf plant response rating): 20% | pest or weed control at 2000 g/ha ([6]; Abutilon theophrasti, pre-emergence, 240 h, Preemergence, 2000 g ai/ha, 0 to 100 scale, 0 no effect, 100 complete control, read-out: Velvetleaf plant response rating): 70% | pest or weed control at 500 g/ha ([7]; post-emergence, Postemergence, 500 g ai/ha, 0 to 100 scale, 0 no effect, 100 complete control, read-out: Plant response rating, Crabgrass, Large): 25% | pest or weed control at 2000 g/ha ([7]; post-emergence, Postemergence, 2000 g ai/ha, 0 to 100 scale, 0 no effect, 100 complete control, read-out: Plant response rating, Crabgrass, Large): 100% | pest or weed control at 500 g/ha ([7]; pre-emergence, Preemergence, 500 g ai/ha, visual rating, 0 to 100 scale (0 no effect, 100 complete control), read-out: Crabgrass, Large plant response rating): 75% | pest or weed control at 2000 g/ha ([7]; pre-emergence, Preemergence, 2000 g ai/ha, 0 to 100 scale, 0 no effect, 100 complete control, read-out: Crabgrass, Large plant response rating): 100% | plant injury at 125 g/ha ([8]; Oryza sativa, pre-emergence, 336 h, preemergence, 125 g ai/ha, 0 to 100 scale, 0 is no effect, 100 is complete control, read-out: Plant response rating, Rice): 50% | Rice plant response rating ([8]; Preemergence, 500 g ai/ha, scale 0 to 100): 70 | Plant response rating (0 = no effect, 100 = complete control), Cupgrass, Woolly ([9]; 62 g ai/ha, preemergence): 0 | pest or weed control at 125 g/ha ([9]; Eriochloa villosa, pre-emergence, 312 h, 125 g ai/ha, scale 0 (no effect) to 100 (complete control), visual, 12 to 14 days, read-out: Plant response rating, Cupgrass, Woolly): 25% | pest or weed control at 250 g/ha ([9]; Eriochloa villosa, pre-emergence, 312 h, 250 g ai/ha, scale 0 to 100 (0 no effect, 100 complete control), visual, 12 to 14 days, read-out: Plant response rating, Cupgrass, Woolly): 55% | Cupgrass, Woolly plant response rating [9, 11]: 65 | Plant response rating (0 = no effect, 100 = complete control), Johnsongrass ([10]; 62 g ai/ha, preemergence): 0 | Johnsongrass plant response rating [10, 11]: 100 | pest or weed control at 125 g/ha ([10]; Sorghum halepense, pre-emergence, 125 g ai/ha, scale 0 (no effect) to 100 (complete control), visual, 12 to 14 days, read-out: Plant response rating, Johnsongrass): 75% | pest or weed control at 250 g/ha ([10]; Sorghum halepense, pre-emergence, 250 g ai/ha, scale 0 to 100 (0 no effect, 100 complete control), visual, 12 to 14 days, read-out: Plant response rating, Johnsongrass): 95%

CCc1nn(C(C)(C)C)cc1C(=O)Nc1cc(C(=O)N(CC)CC)ccc1F [Compound 223]
Plant response rating, Sunflower [1, 12]: 0 | Plant response rating, Sunflower [1, 13]: 0 | Plant response rating, Sunflower [1, 14]: 30 | Plant response rating, Soybean [2, 12]: 0 | Plant response rating, Soybean [2, 13]: 80 | Plant response rating, Soybean [2, 14]: 90 | Plant response rating, Goosegrass [3, 12]: 60 | Plant response rating, Goosegrass [3, 15]: 80 | Plant response rating, Goosegrass [3, 13]: 80 | Plant response rating, Goosegrass [3, 14]: 100 | Plant response rating, Surinam Grass [4, 12]: 50 | Plant response rating, Surinam Grass [4, 13]: 70 | Plant response rating, Surinam Grass [4, 14]: 85 | Plant response rating, Nightshade [5, 12]: 100 | Plant response rating, Nightshade [5, 15]: 100 | Plant response rating, Nightshade [5, 13]: 100 | Plant response rating, Nightshade [5, 14]: 100 | Velvetleaf plant response rating [6, 16]: 40 | Plant response rating, Velvetleaf [6, 17]: 35 | Velvetleaf plant response rating [6, 18]: 85 | Velvetleaf plant response rating [6, 19]: 55 | Crabgrass, Large plant response rating [7, 16]: 20 | Plant response rating, Crabgrass, Large [7, 17]: 25 | Crabgrass, Large plant response rating [7, 18]: 90 | Crabgrass, Large plant response rating [7, 19]: 90 | Rice plant response rating (0 to 100 scale) ([8]; 125 g ai/ha, 0 = no effect, 100 = complete control, preemergence): 0 | Plant response rating, Rice ([8]; 500 g ai/ha, visual rating, 0 = no effect, 100 = complete control, preemergence): 30 | Plant response rating, Cupgrass, Woolly [9, 12]: 0 | Plant response rating, Cupgrass, Woolly [9, 15]: 10 | Plant response rating, Cupgrass, Woolly [9, 14]: 80 | Plant response rating, Johnsongrass [10, 12]: 80 | Plant response rating, Johnsongrass [10, 15]: 80
